These results are taken from PMC11597854 (2024).

Experiment [1] deals with hTel23 (DNA, G4) TAGGGTTAGGGTTAGGGTTAGGG
The experiment is described as follows: CD titration, Hill fit. Conditions: 80 mM KCl, 10 mM KH2PO4 (90 mM K+), pH 7.3, 5 °C, up to 0.9% DMSO, apparent.

Experiment [2] shares this test system. Description: CD melting. Conditions: 80 mM KCl, 10 mM KH2PO4 (90 mM K+); pH 7.3; 5 equiv. complex (25 µM), 5 µM DNA, 0.5 °C/min.

In the case of `CC(=O)NCCN1[C]N2C=CC=CC2=C1.CC(=O)NCCN1[C]N2C=CC=CC2=C1.[Au+]`, in experiment [1] (290 nm (hybrid form)), the Kd was found to be 9.7 µM. The ΔTM in experiment [2] is −13 °C.

With `CCN1[C]N(CC)C(c2ccc(OC)cc2)=C1c1ccc(OC)cc1.CCN1[C]N(CC)C(c2ccc(OC)cc2)=C1c1ccc(OC)cc1.[Au+]`, the ΔTM in experiment [2] is −2 °C. In the case of `[Au+].[C]1C2=C(CCCC2)N2CCCCN12.[C]1C2=C(CCCC2)N2CCCCN12`, the Kd in experiment [1] (272 nm (parallel form), 290 nm (hybrid) gives 17) was 5.1 µM. Further, in experiment [2], the ΔTM was −4 °C. On to `[Au+].[C]1N(Cc2ccccn2)C=CN1c1c2ccccc2nc2ccccc12.[C]1N(Cc2ccccn2)C=CN1c1c2ccccc2nc2ccccc12`, for which, in experiment [2], the ΔTM entry is “+1 °C”.
